Literature values as cited in paper PMC9304066, “H2S biogenesis by cystathionine beta-synthase: mechanism of inhibition by aminooxyacetic acid and unexpected role of serine” (Cellular and Molecular Life Sciences: CMLS, 2022).

Key:
human skin fibroblasts = tested on: human skin fibroblasts; design: method as in PMID 31481613; conditions: cited from earlier work
colon cancer cells = tested on: colon cancer cells; design: method as in PMID 23836652, PMID 27521834, PMID 27257787; conditions: transformed cells like colon cancer cells; cited from earlier work
human recombinant CSE = tested on: human recombinant CSE; design: method as in PMID 23488457; conditions: in vitro; cited from earlier work

NOCC(=O)O [AOAA, aminooxyacetic acid]
Concentration shutting down CBS-derived H2S biogenesis (human skin fibroblasts): 3 µM | Concentrations required to achieve similar level of inhibition of CBS-derived H2S biogenesis (colon cancer cells): 0.1 to 2 mM | Potency inhibiting human recombinant CSE relative to CBS (human recombinant CSE): ~ 8 times
